Experimental data reported in patent US7592345B2, “Piperazine and [1,4]diazepan derivatives as NK antagonists” (Hoffmann-La Roche Inc., priority 2007, dated 2009).

molecular target: T1, recombinant human NK3 receptor (Homo sapiens, UniProt P29371); experiment: [3H]SR142801 competition binding assay; conditions: [3H]SR142801, membranes from HEK293 cells transiently expressing recombinant human NK3 receptor; read-out: hNK3 Ki
T1 construct: expressed in transfected cells; host or cells: HEK293 cells (transient expression), membranes
T1 sequence (P29371 1-465): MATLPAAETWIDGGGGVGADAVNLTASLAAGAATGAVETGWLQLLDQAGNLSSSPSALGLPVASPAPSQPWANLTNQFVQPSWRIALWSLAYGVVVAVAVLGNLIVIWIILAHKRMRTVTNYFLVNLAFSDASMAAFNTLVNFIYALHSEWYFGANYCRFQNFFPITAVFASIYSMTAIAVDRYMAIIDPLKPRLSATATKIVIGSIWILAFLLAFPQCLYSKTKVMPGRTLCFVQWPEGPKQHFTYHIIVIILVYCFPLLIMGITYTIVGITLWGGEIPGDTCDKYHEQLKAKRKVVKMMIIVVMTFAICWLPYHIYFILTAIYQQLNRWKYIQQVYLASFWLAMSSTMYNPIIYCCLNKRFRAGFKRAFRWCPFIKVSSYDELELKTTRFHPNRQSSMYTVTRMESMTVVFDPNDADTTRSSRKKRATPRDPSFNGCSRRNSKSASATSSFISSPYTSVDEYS
Description: [^3H]SR142801 Competition Binding Assay
hNK3 receptor binding experiment were performed using [^3H]SR142801 (Catalog No. TRK1035, specific activity: 74.0 Ci/mmol, Amersham, GE Healthcare UK limited, Buckinghamshire, UK) and membrane isolated from HEK293 cells transiently expressing recombinant human NK3 receptor. After thawing, the membrane homogenates were centrifuged at 48,000×g for 10 min at 4° C., the pellets were resuspended in the 50 mM Tris-HCl, 4 mM MnCl2, 1 μM phosphoramidon, 0.1% BSA binding buffer at pH 7.4 to a final assay concentration of 5 μg protein/well. For inhibition experiments, membranes were incubated with [^3H]SR142801 at a concentration equal to KD value of radioligand and 10 concentrations of the inhibitory compound (0.0003-10 μM) (in a total reaction volume of 500 μl) for 75 min at room temperature (RT). At the end of the incubation, membranes were filtered onto unitfilter (96-well white microplate with bonded GF/C filter preincubated 1 h in 0.3% PEI+0.3% BSA, Packard BioScience, Meriden, Conn.) with a Filtermate 196 harvester (Packard BioScience) and washed 4 times with ice-cold 50 mM Tris-HCl, pH 7.4 buffer. Nonspecific binding was measured in the presence of 10 μM SB222200 for both radioligands. The radioactivity on the filter was counted (5 min) on a Packard Top-count microplate scintillation counter with quenching correction after addition of 45 μl of microscint 40 (Canberra Packard S. A., Zürich, Switzerland) and shaking for 1 h. Inhibition curves were fitted according to the Hill equation: y=100/(1+(x/IC50)^nH), where nH=slope factor using Excel-fit 4 software (Microsoft). IC50 values were derived from the inhibition curve and the affinity constant (Ki) values were calculated using the Cheng-Prussoff equation Ki=IC50/(1+[L]/KD) where [L] is the concentration of radioligand and KD is its dissociation constant at the receptor, derived from the saturation isotherm. All experiments were performed in duplicate and the mean±standard error (SEM) of the individual Ki values was calculated.

| Ki | Structure (SMILES) |
| --- | --- |
| 136 nM | CC(CCN1CCCN(S(C)(=O)=O)CC1)(C(=O)NCc1cc(C(F)(F)F)ccc1F)c1ccc(Cl)c(Cl)c1 (centres unmarked) [Example 118, 2-(3,4-Dichloro-phenyl)-N-(2-fluoro-5-trifluoromethyl-benzyl)-4-(4-methanesulfonyl-[1,4]diazepan-1-yl)-2-methyl-butyramide] |
| 12.6 nM | C[C@@H]1CN(CCC(C)(C(=O)N(C)Cc2ccc(Cl)c(C(F)(F)F)c2)c2ccc(Cl)c(Cl)c2)CCN1S(C)(=O)=O (stereo partly drawn) [Example 39, N-(4-Chloro-3-trifluoromethyl-benzyl)-2-(3,4-dichloro-phenyl)-4-((R)-4-methanesulfonyl-3-methyl-piperazin-1-yl)-2,N-dimethyl-butyramide] |
| 50.8 nM | Cc1ccc(CN(C)C(=O)C(C)(CCN2CCN(S(C)(=O)=O)[C@H](C)C2)c2ccc(Cl)c(Cl)c2)cc1 (stereo partly drawn) [Example 36, 2-(3,4-Dichloro-phenyl)-4-((R)-4-methanesulfonyl-3-methyl-piperazin-1-yl)-2,N-dimethyl-N-(4-methyl-benzyl)-butyramide] |
| 52 nM | C[C@H]1CN(CCC(C)(C(=O)N(C)Cc2cccc(C(F)(F)F)c2)c2ccc(Cl)c(Cl)c2)CCN1S(C)(=O)=O (stereo partly drawn) [Example 87, 2-(3,4-Dichloro-phenyl)-4-((S)-4-methanesulfonyl-3-methyl-piperazin-1-yl)-2,N-dimethyl-N-(3-trifluoromethyl-benzyl)-butyramide] |
| 56.2 nM | C[C@@H]1CN(CCC(C)(C(=O)N(C)Cc2cccc(C(F)(F)F)c2)c2ccc(Cl)c(Cl)c2)CCN1S(C)(=O)=O (stereo partly drawn) [Example 58, 2-(3,4-Dichloro-phenyl)-4-((R)-4-methanesulfonyl-3-methyl-piperazin-1-yl)-2,N-dimethyl-N-(3-trifluoromethyl-benzyl)-butyramide] |
| 99.5 nM | C[C@@H]1CN(CCC(C)(C(=O)NCc2cc(C(F)(F)F)ccc2F)c2ccc(Cl)c(Cl)c2)CCN1S(C)(=O)=O (stereo partly drawn) [Example 46, 2-(3,4-Dichloro-phenyl)-N-(2-fluoro-5-trifluoromethyl-benzyl)-4-((R)-4-methanesulfonyl-3-methyl-piperazin-1-yl)-2-methyl-butyramide] |
| 13.3 nM | C[C@@H]1CN(CCC(C)(C(=O)N(C)Cc2ccc(Cl)c(Cl)c2)c2ccc(Cl)c(Cl)c2)CCN1S(C)(=O)=O (stereo partly drawn) [Example 41, N-(3,4-Dichloro-benzyl)-2-(3,4-dichloro-phenyl)-4-((R)-4-methanesulfonyl-3-methyl-piperazin-1-yl)-2,N-dimethyl-butyramide] |
| 16.2 nM | CN(Cc1ccc(C(F)(F)F)c(F)c1)C(=O)C(C)(CCN1CCCN(S(C)(=O)=O)CC1)c1ccc(Cl)c(Cl)c1 (centres unmarked) [Example 112, 2-(3,4-Dichloro-phenyl)-N-(3-fluoro-4-trifluoromethyl-benzyl)-4-(4-methanesulfonyl-[1,4]diazepan-1-yl)-2,N-dimethyl-butyramide] |
| 46.4 nM | C[C@@H]1CN(CCC(C)(C(=O)NCc2ccc(Cl)c(F)c2)c2ccc(Cl)c(Cl)c2)CCN1S(C)(=O)=O (stereo partly drawn) [Example 52, N-(4-Chloro-3-fluoro-benzyl)-2-(3,4-dichloro-phenyl)-4-((R)-4-methanesulfonyl-3-methyl-piperazin-1-yl)-2-methyl-butyramide] |
| 99.9 nM | C[C@@H]1CN(CCC(C)(C(=O)NCc2cccc(OC(F)F)c2)c2ccc(Cl)c(Cl)c2)CCN1S(C)(=O)=O (stereo partly drawn) [Example 43, 2-(3,4-Dichloro-phenyl)-N-(3-difluoromethoxy-benzyl)-4-((R)-4-methanesulfonyl-3-methyl-piperazin-1-yl)-2-methyl-butyramide] |
| 247 nM | C[C@H]1CN(CCC(C)(C(=O)N(C)Cc2ccc(-c3ccncc3)cc2)c2ccc(Cl)c(Cl)c2)CCN1S(C)(=O)=O (stereo partly drawn) [Example 61, 2-(3,4-Dichloro-phenyl)-4-((S)-4-methanesulfonyl-3-methyl-piperazin-1-yl)-2,N-dimethyl-N-(4-pyridin-4-yl-benzyl)-butyramide] |
